Columns and labels:
Type in all cases: in vivo
[1] = tested on: velvetleaf (Abutilon theophrasti); assay: Test C greenhouse herbicide test, pre- and postemergence
Source text: (§1) Seeds of plant species selected from blackgrass (Alopecurus myosuroides), ryegrass, Italian (Italian ryegrass, Lolium multiflorum), wheat (winter wheat, Triticum aestivum), galium (catchweed bedstraw, Galium aparine), corn (Zea mays), large crabgrass, large (large crabgrass, Digitaria sanguinalis), foxtail, giant (giant foxtail, Setaria faberii), johnsongrass (Sorghum halepense), lambsquarters (Chenopodium album), morningglory (Ipomoea coccinea), nutsedge, yellow (yellow nutsedge, Cyperus esculentus), pigweed (Amaranthus retroflexus), ragweed (common ragweed, Ambrosia elatior), soybean (Glycine max), barnyardgrass (Echinochloa crus-galli), oilseed rape (Brassica napus), waterhemp (common waterhemp, Amaranthus rudis), and velvetleaf (Abutilon theophrasti) were planted into a blend of loam soil and sand and treated preemergence with test chemicals formulated in a non-phytotoxic solvent mixture which included a surfactant.
(§2) At the same time, plants selected from these crop and weed species and also chickweed (common chickweed, Stellaria media), kochia (Kochia scoparia), and oat, wild (wild oat, Avena fatua), were planted in pots containing Redi-Earth® planting medium (Scotts Company, 14111 Scottslawn Road, Marysville, Ohio 43041) comprising spaghnum peat moss, vermiculite, wetting agent and starter nutrients and treated with postemergence applications of test chemicals formulated in the same manner. Plants ranged in height from 2 to 18 cm (1- to 4-leaf stage) for postemergence treatments. Treated plants and controls were maintained in a greenhouse for 13 to 15 d, after which time all species were compared to controls and visually evaluated. Plant response ratings, summarized in Table C, are based on a scale of 0 to 100 where 0 is no effect and 100 is complete control. A dash (-) response means no test result.

[2] = tested on: barnyardgrass (Echinochloa crus-galli); assay: as above
Source text: as §1, §2

[3] = tested on: galium (catchweed bedstraw, Galium aparine); assay: as above
Source text: as §1, §2

[4] = tested on: kochia (Kochia scoparia); assay: Test A greenhouse herbicide test, pre- and postemergence
Method in brief: (§3)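 Seeds in loam–sand blend received a preemergence directed soil spray; plants at 2–10 cm, one- to two-leaf stage, received postemergence sprays. Compounds in a non-phytotoxic solvent with surfactant. After about 10 d in a greenhouse, injury rated visually versus untreated controls on a 0–100 scale (100 = complete control).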

[5] = tested on: foxtail, giant (giant foxtail, Setaria faberii); assay: as above
Method in brief: as §3

[6] = tested on: wheat (Triticum aestivum); assay: as above; conditions: Postemergence
Method in brief: as §3

[7] = tested on: barnyardgrass (Echinochloa crus-galli); assay: as above
Method in brief: as §3

[8] = tested on: corn (Zea mays); assay: as above; conditions: Postemergence
Method in brief: as §3

[9] = tested on: ragweed (common ragweed, Ambrosia elatior); assay: as above
Method in brief: as §3

[10] = tested on: pigweed (Amaranthus retroflexus); assay: as above
Method in brief: as §3

[11] = tested on: ryegrass, Italian (Italian ryegrass, Lolium multiflorum); assay: as above
Method in brief: as §3

[12] = Postemergence, 31 g ai/ha, scale 0 to 100 (0 no effect, 100 complete control)
[13] = Postemergence, 125 g ai/ha, scale 0 to 100, 0 is no effect, 100 is complete control
[14] = Postemergence, 250 g ai/ha, scale 0 to 100, 0 no effect, 100 complete control, 13 to 15 d
[15] = Preemergence, 31 g ai/ha, scale 0 to 100, 0 is no effect, 100 is complete control
[16] = Preemergence, 62 g ai/ha, scale 0 to 100, 0 is no effect, 100 is complete control
[17] = Preemergence, 125 g ai/ha, scale 0 to 100, 0 is no effect, 100 is complete control
[18] = Preemergence, 250 g ai/ha, scale 0 to 100 (0 no effect, 100 complete control)
[19] = postemergence, 62 g ai/ha, scale 0 to 100, 0 no effect, 100 complete control
[20] = Postemergence, 125 g ai/ha, 0 to 100 scale where 0 is no effect and 100 is complete control
[21] = Postemergence, 500 g ai/ha, visual rating after approx. 10 d, 0 to 100 scale (0 no effect, 100 complete control)
[22] = Preemergence, 125 g ai/ha, 0 to 100 scale where 0 is no effect and 100 is complete control
[23] = Preemergence, 500 g ai/ha, 0 to 100 scale where 0 is no effect and 100 is complete control
[24] = 125 g ai/ha, 0 to 100 scale where 0 is no effect and 100 is complete control
[25] = 500 g ai/ha, visual rating after approx. 10 d, 0 to 100 scale (0 no effect, 100 complete control)
[26] = Postemergence, 500 g ai/ha, 0 to 100 scale, 0 is no effect, 100 is complete control

## CCC(=O)Oc1c(C)nn(C)c(=O)c1-c1c(C)sc2ccc(Cl)cc12 [Compound 109]
[1]; [12]
  Plant response rating, Velvetleaf: 75
[1]; [13]
  Plant response rating, Velvetleaf: 98
[1]; [14]
  Plant response rating, Velvetleaf: 100
[1]; [15]
  Plant response rating, Velvetleaf: 60
[1]; [16]
  Plant response rating, Velvetleaf: 75
[1]; [17]
  Plant response rating, Velvetleaf: 80
[1]; [18]
  Velvetleaf plant response rating: 90
[2]; [12]
  Plant response rating, Barnyardgrass: 25
[2]; [13]
  Plant response rating, Barnyardgrass: 55
[2]; [14]
  Plant response rating, Barnyardgrass: 65
[2]; [15]
  Plant response rating, Barnyardgrass: 10
[2]; [16]
  Plant response rating, Barnyardgrass: 35
[2]; [17]
  Plant response rating, Barnyardgrass: 70
[2]; [18]
  Barnyardgrass plant response rating: 80
[2]; [19]
  Barnyardgrass plant response rating: 30
[3]; [12]
  Plant response rating, Galium: 98
[3]; [13]
  Plant response rating, Galium: 100
[3]; [14]
  Plant response rating, Galium: 100
[3]; [15]
  Plant response rating, Galium: 90
[3]; [16]
  Plant response rating, Galium: 90
[3]; [17]
  Plant response rating, Galium: 90
[3]; [18]
  Galium plant response rating: 90
[4]; [20]
  Plant response rating, Kochia: 90
[4]; [21]
  Plant response rating, Kochia: 90
[4]; [22]
  Kochia plant response rating: 100
[4]; [23]
  Plant response rating, Kochia: 100
[5]; [20]
  Plant response rating, Foxtail, Giant: 70
[5]; [21]
  Plant response rating, Foxtail, Giant: 90
[5]; [22]
  Foxtail, Giant plant response rating: 90
[5]; [23]
  Plant response rating, Foxtail, Giant: 100
[6]; [24]
  Plant response rating, Wheat: 20
[6]; [25]
  Plant response rating, Wheat: 30
[7]; [20]
  Plant response rating, Barnyardgrass: 30
[7]; [26]
  Barnyardgrass plant response rating: 90
[7]; [22]
  Barnyardgrass plant response rating: 20
[7]; [23]
  Plant response rating, Barnyardgrass: 100
[8]; [24]
  Plant response rating, Corn: 0
[8]; [25]
  Plant response rating, Corn: 30
[9]; [20]
  Plant response rating, Ragweed: 80
[9]; [21]
  Plant response rating, Ragweed: 100
[9]; [22]
  Ragweed plant response rating: 100
[9]; [23]
  Plant response rating, Ragweed: 100
[10]; [20]
  Plant response rating, Pigweed: 90
[10]; [21]
  Plant response rating, Pigweed: 90
[10]; [22]
  Pigweed plant response rating: 100
[10]; [23]
  Plant response rating, Pigweed: 100
[11]; [20]
  Plant response rating, Ryegrass, Italian: 100
[11]; [21]
  Plant response rating, Ryegrass, Italian: 100
[11]; [22]
  Ryegrass, Italian plant response rating: 100
[11]; [23]
  Plant response rating, Ryegrass, Italian: 100

## Cc1ccc2ccccc2c1-c1c(O)c(Cl)nn(C)c1=O [Compound 125]
[1]; [12]
  Plant response rating, Velvetleaf: 85
[1]; [13]
  Plant response rating, Velvetleaf: 95
[1]; [14]
  Plant response rating, Velvetleaf: 98
[1]; [15]
  Plant response rating, Velvetleaf: 95
[1]; [16]
  Plant response rating, Velvetleaf: 100
[1]; [17]
  Plant response rating, Velvetleaf: 100
[1]; [18]
  Velvetleaf plant response rating: 100
[2]; [12]
  Plant response rating, Barnyardgrass: 35
[2]; [13]
  Plant response rating, Barnyardgrass: 80
[2]; [14]
  Plant response rating, Barnyardgrass: 70
[2]; [15]
  Plant response rating, Barnyardgrass: 55
[2]; [16]
  Plant response rating, Barnyardgrass: 70
[2]; [17]
  Plant response rating, Barnyardgrass: 90
[2]; [18]
  Barnyardgrass plant response rating: 98
[2]; [19]
  Barnyardgrass plant response rating: 40
[3]; [12]
  Plant response rating, Galium: 95
[3]; [13]
  Plant response rating, Galium: 95
[3]; [14]
  Plant response rating, Galium: 95
[3]; [15]
  Plant response rating, Galium: 100
[3]; [16]
  Plant response rating, Galium: 100
[3]; [17]
  Plant response rating, Galium: 100
[3]; [18]
  Galium plant response rating: 100
[4]; [20]
  Plant response rating, Kochia: 100
[4]; [21]
  Plant response rating, Kochia: 100
[4]; [22]
  Kochia plant response rating: 60
[4]; [23]
  Plant response rating, Kochia: 90
[5]; [20]
  Plant response rating, Foxtail, Giant: 90
[5]; [21]
  Plant response rating, Foxtail, Giant: 90
[5]; [22]
  Foxtail, Giant plant response rating: 90
[5]; [23]
  Plant response rating, Foxtail, Giant: 100
[6]; [24]
  Plant response rating, Wheat: 50
[6]; [25]
  Plant response rating, Wheat: 80
[7]; [20]
  Plant response rating, Barnyardgrass: 90
[7]; [21]
  Plant response rating, Barnyardgrass: 90
[7]; [22]
  Barnyardgrass plant response rating: 70
[7]; [23]
  Plant response rating, Barnyardgrass: 90
[8]; [24]
  Plant response rating, Corn: 20
[8]; [25]
  Plant response rating, Corn: 30
[9]; [20]
  Plant response rating, Ragweed: 90
[9]; [21]
  Plant response rating, Ragweed: 100
[9]; [22]
  Ragweed plant response rating: 80
[9]; [23]
  Plant response rating, Ragweed: 90
[10]; [20]
  Plant response rating, Pigweed: 100
[10]; [21]
  Plant response rating, Pigweed: 100
[10]; [22]
  Pigweed plant response rating: 100
[10]; [23]
  Plant response rating, Pigweed: 100
[11]; [20]
  Plant response rating, Ryegrass, Italian: 100
[11]; [21]
  Plant response rating, Ryegrass, Italian: 100
[11]; [22]
  Ryegrass, Italian plant response rating: 100
[11]; [23]
  Plant response rating, Ryegrass, Italian: 100

## CCCC(=O)Oc1c(C)nn(C)c(=O)c1-c1c(C)sc2c(C)cc(C)cc12 [Compound 106]
[1]; [12]
  Plant response rating, Velvetleaf: 80
[1]; [13]
  Plant response rating, Velvetleaf: 90
[1]; [14]
  Plant response rating, Velvetleaf: 100
[1]; [15]
  Plant response rating, Velvetleaf: 40
[1]; [16]
  Plant response rating, Velvetleaf: 60
[1]; [17]
  Plant response rating, Velvetleaf: 85
[1]; [18]
  Velvetleaf plant response rating: 90
[2]; [12]
  Plant response rating, Barnyardgrass: 15
[2]; [13]
  Plant response rating, Barnyardgrass: 20
[2]; [14]
  Plant response rating, Barnyardgrass: 40
[2]; [15]
  Plant response rating, Barnyardgrass: 25
[2]; [16]
  Plant response rating, Barnyardgrass: 45
[2]; [17]
  Plant response rating, Barnyardgrass: 85
[2]; [18]
  Barnyardgrass plant response rating: 95
[2]; [19]
  Barnyardgrass plant response rating: 15
[3]; [12]
  Plant response rating, Galium: 95
[3]; [13]
  Plant response rating, Galium: 95
[3]; [14]
  Plant response rating, Galium: 100
[3]; [15]
  Plant response rating, Galium: 90
[3]; [16]
  Plant response rating, Galium: 90
[3]; [17]
  Plant response rating, Galium: 95
[3]; [18]
  Galium plant response rating: 95
[4]; [20]
  Plant response rating, Kochia: 70
[4]; [21]
  Plant response rating, Kochia: 90
[4]; [22]
  Kochia plant response rating: 20
[4]; [23]
  Plant response rating, Kochia: 90
[5]; [20]
  Plant response rating, Foxtail, Giant: 90
[5]; [21]
  Plant response rating, Foxtail, Giant: 90
[5]; [22]
  Foxtail, Giant plant response rating: 100
[5]; [23]
  Plant response rating, Foxtail, Giant: 100
[6]; [24]
  Plant response rating, Wheat: 0
[6]; [25]
  Plant response rating, Wheat: 20
[7]; [20]
  Plant response rating, Barnyardgrass: 70
[7]; [26]
  Barnyardgrass plant response rating: 90
[7]; [22]
  Barnyardgrass plant response rating: 80
[7]; [23]
  Plant response rating, Barnyardgrass: 100
[8]; [24]
  Plant response rating, Corn: 0
[8]; [25]
  Plant response rating, Corn: 20
[9]; [20]
  Plant response rating, Ragweed: 90
[9]; [21]
  Plant response rating, Ragweed: 90
[9]; [22]
  Ragweed plant response rating: 90
[9]; [23]
  Plant response rating, Ragweed: 100
[10]; [20]
  Plant response rating, Pigweed: 90
[10]; [21]
  Plant response rating, Pigweed: 90
[10]; [22]
  Pigweed plant response rating: 100
[10]; [23]
  Plant response rating, Pigweed: 100
[11]; [20]
  Plant response rating, Ryegrass, Italian: 90
[11]; [21]
  Plant response rating, Ryegrass, Italian: 100
[11]; [22]
  Ryegrass, Italian plant response rating: 100
[11]; [23]
  Plant response rating, Ryegrass, Italian: 100
